The term DC50 denotes the concentration at which degradation of the target reaches its halfway point. As usually defined, the IC50 is the midpoint of a concentration-inhibition curve.

DC50 and IC50 data for seven compounds are collected here from patent US20260049072A1, “HETEROCYCLIC COMPOUND FOR INDUCING DEGRADATION OF MUTANT KRAS PROTEIN” (Astellas Pharma Inc., priority 2022, published 2026).

In one experiment the target is T1, RAS G12V (Homo sapiens, UniProt P01116, G12V).
T1 construct: host or cells: PA-TU-8902 human pancreatic cancer cells
T1 sequence (P01116 1-188 isoform P01116-2 G12V): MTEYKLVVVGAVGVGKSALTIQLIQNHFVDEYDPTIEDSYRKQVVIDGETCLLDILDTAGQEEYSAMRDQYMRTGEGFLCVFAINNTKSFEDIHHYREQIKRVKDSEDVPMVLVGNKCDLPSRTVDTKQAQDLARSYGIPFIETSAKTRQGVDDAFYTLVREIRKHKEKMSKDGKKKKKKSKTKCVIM
As to the kind of experiment: RAS G12V degradation activity, Cell ELISA, PA-TU-8902. Format: cell-based. Particulars: PA-TU-8902 cells, 24 hours, 100% = Example compound 17 at 1 μM; read-out: DC50 (RAS G12V 50% degradation value). As for the experimental part: Test Example 1-1: Evaluation of RAS G12V Degradation Activity on Human KRAS G12V Mutant-Positive Pancreatic Cancer Line PA-TU-8902
The RAS G12V degradation activities of subject compounds were evaluated by measuring the expression levels of RAS G12V by a Cell ELISA method.
PA-TU-8902 cells (DSMZ, ACC 179) were seeded at 36 μL per well on a 384-well plate (from Greiner bio-one) to give 1.5×10^4 cells per well. As for the cell culture conditions, DMEM medium (from Sigma-Aldrich) containing 10% fetal bovine serum (from Cytiva) was used in the presence of 5% CO2 at 37° C.
The next day, the subject compounds (10 points having final concentrations in the range of 3 μM to 0.1 nM), Example compound 17 of a final concentration of 1 μM as a positive control and dimethyl sulfoxide (DMSO), which was the solvent for the subject compounds, as a negative control were diluted 100-fold with a fresh medium and were each added at 4 μL per well, followed by culturing for 24 hours.
The next day, the culture supernatant was removed, and a 4% paraformaldehyde phosphate buffer solution (from FUJIFILM Wako) was added at 20 μL per well. The plate was allowed to stand for 30 minutes at room temperature to thus immobilize the cells. Then, the supernatant was removed, and 0.1% Triton X-100 (from Amersham Biosciences)-containing Phosphate buffered saline (PBS) was added at 20 μL per well. After allowing the plate to stand at room temperature for 10 minutes, the supernatant was removed, and the wells were washed twice in total by adding PBS at 25 μL per well and removing the supernatant. The washing operations below were performed in the same manner. Next, the supernatant was removed, and 0.5% sodium dodecyl sulfate (SDS; from ThermoFisher Scientific)-containing PBS was added at 20 μL per well. After allowing the plate to stand at room temperature for 10 minutes, the plate was centrifuged to remove the supernatant. After washing with PBS, the supernatant was removed by centrifugation, and a blocking solution (PVDF Blocking Reagent for Can Get Signal; from TOYOBO) was added at 20 μL per well. After allowing the plate to stand for 30 minutes at room temperature, the supernatant was removed by centrifugation, and a solution obtained by diluting an anti-Ras (G12V Mutant Specific) antibody (Ras (G12V Mutant Specific) (D2H12) Rabbit mAb; from Cell Signaling Technology; 500-fold dilution) and an anti-3-actin antibody (Anti-beta Actin antibody; from Abcam; 5,000-fold dilution) with Can Get Signal Solution 2 (from TOYOBO) was added at 15 μL per well as primary antibodies. The plate was allowed to stand overnight at 4° C.
The next day, the supernatant was removed by centrifugation, and the plate was washed with PBS. The supernatant was removed by centrifugation, and a solution obtained by diluting an anti-rabbit IgG antibody (IRDye 800CW Goat anti-Rabbit IgG; from LI-COR Biosciences) and an anti-mouse IgG antibody (IRDye 680RD Donkey anti-Mouse IgG; from LI-COR Biosciences) 1,000-fold with Can Get Signal Solution 2 was added at 15 μL per well as secondary antibodies. After allowing the plate to stand at room temperature for an hour, the supernatant was removed by centrifugation, and the plate was washed with PBS. After removing the supernatant, the plate was dried as it was with air at room temperature for two hours or more, and the 700-nm and 800-nm fluorescent signals were measured with Aerius (from LI-COR Biosciences).
With the RAS G12V signaling value at the time of addition of DMSO corrected with the signaling value of 3-actin taken as 0% and with the RAS G12V signaling value at the time of addition of Example compound 17 of a final concentration of 1 μM taken as 100%, the RAS G12V degradation rates were calculated. The 50% degradation values (DC50) were calculated by Sigmoid-Emax model nonlinear regression analysis.
In general terms: In an ELISA, binding on a coated surface is turned into a signal by an enzyme label.

In a further experiment the test system is PA-TU-8902 cells. As to the kind of experiment: Non-anchorage-dependent cell growth inhibition (spheroid 3D culture), PA-TU-8902. Type of experiment: cell-based, human. The settings on record: Homo sapiens, PaTu 8902, 144 h; KRAS G12V mutant-positive, 3D spheroid, six days, CellTiter-Glo 2.0; read-out: PA-TU-8902 IC50. Put shortly:
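Human pancreatic lines (PA-TU-8902 KRAS G12V, AsPC-1 G12D, MIA PaCa-2 G12C) grown as spheroids at 5×10^2 cells/well in low-adhesion round-bottom plates; MIA PaCa-2 in RPMI-1640 with 10% FBS. Compounds added next day (6-9 points, 3 μM to 0.3 nM final) for six days at 37 °C, 5% CO2. CellTiter-Glo luminescence, IC50 by Sigmoid-Emax regression versus DMSO and cell-free controls.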
A general note: Cellular ATP, detected with luciferase, serves as a proxy for viable cell number.

The test system of a further experiment is AsPC-1 cells. Put plainly: Non-anchorage-dependent cell growth inhibition (spheroid 3D culture), AsPC-1. The settings on record: Homo sapiens, ASPC1, 144 h; KRAS G12D mutant-positive, 3D spheroid, six days, CellTiter-Glo 2.0; read-out: AsPC-1 IC50. Type of experiment: cell-based. As for the experimental part:
Test Example 3: Evaluation of Non-Anchorage-Dependent Cell Growth Inhibitory Activity on Human KRAS G12V Mutant-Positive Pancreatic Cancer Line PA-TU-8902, Human KRAS G12D Mutant-Positive Pancreatic Cancer Line AsPC-1 or Human KRAS G12C Mutant-Positive Pancreatic Cancer Line MIA PaCa-2
The non-anchorage-dependent cell growth inhibitory activities of subject compounds were evaluated by spheroid 3D cell culture.
PA-TU-8902 cells, AsPC-1 cells or MIA PaCa-2 cells (RIKEN BRC, RCB2094) were seeded at 36 µL/well on a low-cell-adhesive round bottom 384-well plate (Prime Surface: from Sumitomo Bakelite) to give 5×10^2 cells per well. The PA-TU-8902 cells were under the same conditions as in Test Example 1-1, and the AsPC-1 cells were under the same conditions as in Test Example 1-2. For the MIA PaCa-2 cells, RPMI-1640 medium containing 10% fetal bovine serum was used in the presence of 5% CO2 at 37° C.
The next day, the subject compounds (6-9 points having final concentrations in the range of 3 μM to 0.3 nM) and DMSO, which was the solvent for the subject compounds, as a negative control were diluted 100-fold with a fresh medium and were each added at 4 μL per well. After culturing in the presence of 5% CO2 at 37° C. for six days, CellTiter-Glo 2.0 (from Promega) was added at 20 μL per well. After stirring with a plate mixer (from FINEPCR) at normal temperature for an hour, the luminescent signals were measured with ARVO X3 (from PerkinElmer).
With the signaling value in treatment with DMSO taken as 0% inhibition and with the signaling value in the medium alone without cells taken as 100% inhibition, the 50% inhibition values (IC50) were calculated by Sigmoid-Emax model nonlinear regression analysis.

Structures are written as SMILES.

With `CO[C@@H](C)COc1nc(NC2CN(C(=O)N3CC(CN(C)C)C3)C2)c2cc(C3CC3)c(-c3c(C)c(F)cc4[nH]ncc34)c(OCc3ccc(-c4cn([C@H](C(=O)N5C[C@H](O)C[C@H]5C(=O)N[C@@H](CO)c5ccc(-c6scnc6C)cc5)C(C)C)nn4)cc3)c2n1` (atropisomer, axis not shown) [Example 25], at RAS G12V, the 50% degradation concentration (DC50) was 14 nM. Besides, the IC50 in the experiment on PA-TU-8902 cells amounted to 41 nM; with AsPC-1 cells it was 14 nM.

For `CO[C@@H](C)COc1nc(NC2CN(C(=O)O[C@H]3C[C@@H](N(C)C)C3)C2)c2cc(C3CC3)c(-c3c(C)c(F)cc4[nH]ncc34)c(OCc3ccc(-c4cn([C@H](C(=O)N5C[C@H](O)C[C@H]5C(=O)N[C@@H](CO)c5ccc(-c6ocnc6C)cc5)C(C)C)nn4)cc3)c2n1` (atropisomer, axis not shown; (M)) [Example 1, (1s,3R)-3-(dimethylamino)cyclobutyl 3-({(7M)-6-cyclopropyl-7-(6-fluoro-5-methyl-1H-indazol-4-yl)-8-{[4-(1-{(2S)-1-[(2S,4R)-4-hydroxy-2-({(1R)-2-hydroxy-1-[4-(4-methyl-1,3-oxazol-5-yl)phenyl]ethyl}carbamoyl)pyrrolidin-1-yl]-3-methyl-1-oxobutan-2-yl}-1H-1,2,3-triazol-4-yl)phenyl]methoxy}-2-[(2S)-2-methoxypropoxy]quinazolin-4-yl}amino)azetidine-1-carboxylate], the DC50 on RAS G12V worked out at 31 nM. Also, the results for the IC50 in the experiment on PA-TU-8902 cells and with AsPC-1 cells were 57 nM and 28 nM, respectively.

As for `CO[C@@H](C)COc1cc(OC2CN(C(=O)NCCN(C)C)C2)c2cc(C3CC3)c(-c3c(C)c(F)cc4[nH]ncc34)c(OCc3ccc(-c4cn([C@H](C(=O)N5C[C@H](O)C[C@H]5C(=O)N[C@@H](CO)c5ccc(-n6cncn6)cc5)C(C)C)nn4)cc3)c2n1` (atropisomer, axis not shown; (M)) [Example 12, (4R)-1-[(2S)-2-(4-{4-[({(7M)-6-cyclopropyl-4-[(1-{[2-(dimethylamino)ethyl]carbamoyl}azetidin-3-yl)oxy]-7-(6-fluoro-5-methyl-1H-indazol-4-yl)-2-[(2S)-2-methoxypropoxy]quinolin-8-yl}oxy)methyl]phenyl}-1H-1,2,3-triazol-1-yl)-3-methylbutanoyl]-4-hydroxy-N-{(1R)-2-hydroxy-1-[4-(1H-1,2,4-triazol-1-yl)phenyl]ethyl}-L-prolinamide], the DC50 at RAS G12V came to 37 nM. Also, the IC50 in the experiment on PA-TU-8902 cells amounted to 36 nM; in the experiment with AsPC-1 cells, 17 nM.

Turning to `Cc1ncsc1-c1ccc([C@H](CO)NC(=O)[C@@H]2C[C@@H](O)CN2C(=O)[C@H](C(C)C)n2cc(-c3ccc(COc4c(-c5c(C)c(F)cc6[nH]ncc56)c(C5CC5)cc5c(NC6CN(c7ncccn7)C6)nc(OC6CCOCC6)nc45)cc3)nn2)cc1` [Example 15, (4R)-1-[(2S)-2-{4-[4-({[(7M)-6-cyclopropyl-7-(6-fluoro-5-methyl-1H-indazol-4-yl)-2-[(oxan-4-yl)oxy]-4-{[1-(pyrimidin-2-yl)azetidin-3-yl]amino}quinazolin-8-yl]oxy}methyl)phenyl]-1H-1,2,3-triazol-1-yl}-3-methylbutanoyl]-4-hydroxy-N-{(1R)-2-hydroxy-1-[4-(4-methyl-1,3-thiazol-5-yl)phenyl]ethyl}-L-prolinamide], the DC50 on RAS G12V turned out to be 89 nM. Also, the figures for the IC50 with PA-TU-8902 cells and with AsPC-1 cells were 161 nM and 126 nM, respectively.

`CO[C@@H](C)COc1cc(OC2CN(C(=O)N3CC(CN(C)C)C3)C2)c2cc(C3CC3)c(-c3c(C)c(F)cc4[nH]ncc34)c(OCc3ccc(-c4cn([C@H](C(=O)N5C[C@H](O)C[C@H]5C(=O)N[C@@H](CO)c5ccc(-c6scnc6C)cc5)C(C)C)nn4)cc3)c2n1` (atropisomer, axis not shown; (M)) [Example 14, (4R)-1-[(2S)-2-(4-{4-[({(7M)-6-cyclopropyl-4-[(1-{3-[(dimethylamino)methyl]azetidine-1-carbonyl}azetidin-3-yl)oxy]-7-(6-fluoro-5-methyl-1H-indazol-4-yl)-2-[(2S)-2-methoxypropoxy]quinolin-8-yl}oxy)methyl]phenyl}-1H-1,2,3-triazol-1-yl)-3-methylbutanoyl]-4-hydroxy-N-{(1R)-2-hydroxy-1-[4-(4-methyl-1,3-thiazol-5-yl)phenyl]ethyl}-L-prolinamide]: the DC50 at RAS G12V was determined as 10 nM. For the same compound, the IC50 turned out to be 47 nM in the experiment with PA-TU-8902 cells and 19 nM with AsPC-1 cells.

In the case of `CO[C@@H](C)COc1nc(N2CCOCC2)c2cc(C3CC3)c(-c3c(C)c(F)cc4[nH]ncc34)c(OCc3ccc(-c4cn([C@H](C(=O)N5C[C@H](O)C[C@H]5C(=O)N[C@@H](CO)c5ccc(-c6scnc6C)cc5)C(C)C)nn4)cc3)c2n1` (atropisomer, axis not shown) [Example 21], the DC50 at RAS G12V was 35 nM. For the same compound, the IC50 in the experiment with PA-TU-8902 cells is 60 nM; in the experiment on AsPC-1 cells, 43 nM.

In the case of `CO[C@@H](C)COc1nc(OC2CN(C(=O)NCCN(C)C)C2)c2cc(C3CC3)c(-c3c(C)c(F)cc4[nH]ncc34)c(OCc3ccc(-c4cn([C@H](C(=O)N5C[C@H](O)C[C@H]5C(=O)N[C@@H](CO)c5ccc(-c6scnc6C)cc5)C(C)C)nn4)cc3)c2n1` (atropisomer, axis not shown) [Example 17], the DC50 on RAS G12V stood at 41 nM. In addition, the IC50 with PA-TU-8902 cells was found to be 46 nM; in the experiment with AsPC-1 cells, 16 nM.
